Results published in ChEMBL document CHEMBL5518185, “Design, synthesis and antitumor activity of 4-arylamine substituted pyrimidine derivatives as noncovalent EGFR inhibitors overcoming C797S mutation” (Eur J Med Chem, 2024).
Calls of active or inactive are those of the source. The rule behind the calls is not given here.

How the values were obtained:
[1] = test system: Epidermal growth factor receptor (Homo sapiens), P00533 [UNDEFINED MUTATION]; details: dose 100.0 nM
HCC827 [2] = experiment: Antiproliferative activity against human HCC827 cells assessed as inhibition of cell growth measured after 72 hrs by MTT assay; format: functional, cell-based; details: HCC827, 72 h
NCI-H1975 = experiment: Antiproliferative activity against human NCI-H1975 cells assessed as inhibition of cell growth measured after 72 hrs by MTT assay; format: functional, cell-based; details: NCI-H1975, 72 h
A549 = experiment: Antiproliferative activity against human A549 cells assessed as inhibition of cell growth measured after 72 hrs by MTT assay; format: functional, cell-based; details: A549, 72 h
[3] = test system: Epidermal growth factor receptor (Homo sapiens), P00533 [UNDEFINED MUTATION]; details: dose 30.0 nM
HCC827 [4] = experiment: Induction of cell cycle arrest in human HCC827 cells assessed as accumulation of cells at G2/M phase at 100 nM measured after 24 hrs by PI staining based flow cytometry analysis (reference value: 16.83%); format: functional
[5] = target: Mast/stem cell growth factor receptor Kit (Homo sapiens) (UniProt P10721); experiment: Inhibition of c-kit (unknown origin) by HTRF assay relative to control; details: concentration not given here
Chain of Mast/stem cell growth factor receptor Kit (Homo sapiens) (P10721 whole entry): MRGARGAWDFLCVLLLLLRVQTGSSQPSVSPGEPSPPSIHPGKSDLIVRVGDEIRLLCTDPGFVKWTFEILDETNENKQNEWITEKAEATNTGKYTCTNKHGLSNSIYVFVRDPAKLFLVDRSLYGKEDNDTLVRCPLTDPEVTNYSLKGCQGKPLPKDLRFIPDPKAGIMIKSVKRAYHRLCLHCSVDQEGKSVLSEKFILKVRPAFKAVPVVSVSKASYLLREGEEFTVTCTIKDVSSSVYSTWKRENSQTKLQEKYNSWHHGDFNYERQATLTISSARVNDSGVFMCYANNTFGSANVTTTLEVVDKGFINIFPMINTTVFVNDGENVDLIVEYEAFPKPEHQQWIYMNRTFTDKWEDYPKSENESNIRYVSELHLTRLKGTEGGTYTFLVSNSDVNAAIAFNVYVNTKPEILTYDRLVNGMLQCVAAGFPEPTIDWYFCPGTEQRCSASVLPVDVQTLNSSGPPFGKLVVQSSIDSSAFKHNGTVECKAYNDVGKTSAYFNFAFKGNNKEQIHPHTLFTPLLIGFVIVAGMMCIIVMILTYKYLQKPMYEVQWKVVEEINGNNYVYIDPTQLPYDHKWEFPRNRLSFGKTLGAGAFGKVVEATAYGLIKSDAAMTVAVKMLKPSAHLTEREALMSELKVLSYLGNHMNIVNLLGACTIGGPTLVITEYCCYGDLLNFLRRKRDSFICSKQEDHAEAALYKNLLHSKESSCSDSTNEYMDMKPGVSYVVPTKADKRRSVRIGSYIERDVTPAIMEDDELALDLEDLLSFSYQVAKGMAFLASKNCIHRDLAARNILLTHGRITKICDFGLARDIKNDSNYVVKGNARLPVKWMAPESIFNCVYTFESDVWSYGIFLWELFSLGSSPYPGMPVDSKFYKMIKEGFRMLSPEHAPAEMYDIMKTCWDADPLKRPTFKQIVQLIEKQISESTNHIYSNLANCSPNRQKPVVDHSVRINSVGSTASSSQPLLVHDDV

HCC827 [6] = experiment: Induction of cell cycle arrest in human HCC827 cells assessed as accumulation of cells at S phase at 100 nM measured after 24 hrs by PI staining based flow cytometry analysis (reference value: 28.81%); format: functional
HCC827 [7] = experiment: Induction of cell cycle arrest in human HCC827 cells assessed as accumulation of cells at G0/G1 phase at 10 nM measured after 24 hrs by PI staining based flow cytometry analysis (reference value: 54.36%); format: functional
[8] = Cytotoxicity against human L02 cells assessed as inhibition of cell viability measured after 72 hrs by MTT assay; format: toxicity, cell-based
Homo sapiens [9] = organism: Homo sapiens; experiment: Inhibition of VGFR (unknown origin) by HTRF assay relative to control; details: concentration not given here
HCC827 [10] = experiment: Induction of cell cycle arrest in human HCC827 cells assessed as accumulation of cells at S phase at 10 nM measured after 24 hrs by PI staining based flow cytometry analysis (reference value: 28.81%); format: functional
Homo sapiens [11] = organism: Homo sapiens; experiment: Inhibition of FGFR (unknown origin) by HTRF assay relative to control; details: concentration not given here
[12] = target: Platelet-derived growth factor receptor alpha (Homo sapiens) (UniProt P16234); experiment: Inhibition of PDGFR alpha (unknown origin) by HTRF assay relative to control; details: concentration not given here
Chain of Platelet-derived growth factor receptor alpha (Homo sapiens) (P16234 whole entry): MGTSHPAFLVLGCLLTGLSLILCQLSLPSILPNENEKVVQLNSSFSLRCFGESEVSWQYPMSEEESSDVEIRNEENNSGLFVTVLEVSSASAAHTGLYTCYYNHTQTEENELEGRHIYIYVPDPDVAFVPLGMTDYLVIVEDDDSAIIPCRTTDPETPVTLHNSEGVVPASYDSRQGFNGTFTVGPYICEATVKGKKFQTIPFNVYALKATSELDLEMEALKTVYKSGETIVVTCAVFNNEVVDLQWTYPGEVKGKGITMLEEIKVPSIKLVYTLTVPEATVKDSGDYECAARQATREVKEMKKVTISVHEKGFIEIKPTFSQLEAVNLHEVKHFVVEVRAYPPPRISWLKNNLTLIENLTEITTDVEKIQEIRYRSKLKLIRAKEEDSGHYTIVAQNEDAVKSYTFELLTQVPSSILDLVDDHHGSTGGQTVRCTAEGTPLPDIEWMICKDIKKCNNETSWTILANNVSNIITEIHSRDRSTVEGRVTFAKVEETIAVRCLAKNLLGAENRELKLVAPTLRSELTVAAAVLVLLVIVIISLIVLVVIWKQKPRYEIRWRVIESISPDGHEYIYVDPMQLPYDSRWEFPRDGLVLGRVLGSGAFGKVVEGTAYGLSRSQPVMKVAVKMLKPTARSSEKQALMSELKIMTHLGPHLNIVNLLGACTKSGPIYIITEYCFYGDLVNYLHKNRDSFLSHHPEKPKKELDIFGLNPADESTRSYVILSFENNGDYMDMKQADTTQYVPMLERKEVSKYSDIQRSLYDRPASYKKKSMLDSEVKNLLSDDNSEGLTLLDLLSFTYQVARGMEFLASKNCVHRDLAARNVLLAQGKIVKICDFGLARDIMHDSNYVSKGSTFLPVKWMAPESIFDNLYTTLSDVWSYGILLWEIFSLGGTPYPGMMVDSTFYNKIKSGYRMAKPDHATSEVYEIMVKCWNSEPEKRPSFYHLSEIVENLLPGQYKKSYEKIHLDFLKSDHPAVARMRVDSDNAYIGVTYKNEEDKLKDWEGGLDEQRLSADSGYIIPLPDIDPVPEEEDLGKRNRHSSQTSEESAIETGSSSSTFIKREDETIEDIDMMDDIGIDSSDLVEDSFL

[13] = target: Epidermal growth factor receptor (Homo sapiens, UniProt P00533, EX19DEL/T790M); experiment: Inhibition of EGFR Del19/T790M (unknown origin) preincubated for 10 mins followed by substrate addition and measured after 50 mins in presence of ATP by HTRF assay
[14] = target: Epidermal growth factor receptor (Homo sapiens, UniProt P00533, C797S/L858R/T790M); experiment: Inhibition of EGFR L858R/T790M/C797S triple mutant (unknown origin) preincubated for 10 mins followed by substrate addition and measured after 50 mins in presence of ATP by HTRF assay
[15] = target: Serine/threonine-protein kinase mTOR (Homo sapiens) (UniProt P42345); experiment: Inhibition of mTOR (unknown origin) by HTRF assay relative to control; details: concentration not given here
HCC827 [16] = experiment: Inhibition of colony formation in human HCC827 cells at 10 to 100 nM measured after 14 days by crystal violet staining based analysis; format: functional, cell-based; details: dose 10-100 nM, time 14.0 day
HCC827 [17] = experiment: Induction of cell cycle arrest in human HCC827 cells assessed as accumulation of cells at G2/M phase at 30 nM measured after 24 hrs by PI staining based flow cytometry analysis (reference value: 16.83%); format: functional
HCC827 [18] = experiment: Induction of cell cycle arrest in human HCC827 cells assessed as accumulation of cells at G2/M phase at 10 nM measured after 24 hrs by PI staining based flow cytometry analysis (reference value: 16.83%); format: functional
HCC827 [19] = experiment: Induction of cell cycle arrest in human HCC827 cells assessed as accumulation of cells at G0/G1 phase at 100 nM measured after 24 hrs by PI staining based flow cytometry analysis (reference value: 54.36%); format: functional
[20] = Inhibition of ERK (unknown origin) by HTRF assay relative to control; details: Homo sapiens; concentration not given here
[21] = Cytotoxicity against human 2BS cells assessed as inhibition of cell viability measured after 72 hrs by MTT assay; format: toxicity, cell-based
[22] = target: Tyrosine-protein kinase ABL1 (Homo sapiens) (UniProt P00519); experiment: Inhibition of Abl (unknown origin) by HTRF assay relative to control; details: concentration not given here
[23] = target: RAF proto-oncogene serine/threonine-protein kinase (Homo sapiens) (UniProt P04049); experiment: Inhibition of c-RAF (unknown origin) by HTRF assay relative to control; details: concentration not given here
HCC827 [24] = experiment: Induction of cell cycle arrest in human HCC827 cells assessed as accumulation of cells at G0/G1 phase at 30 nM measured after 24 hrs by PI staining based flow cytometry analysis (reference value: 54.36%); format: functional
[25] = target: Dual specificity mitogen-activated protein kinase kinase; MEK1/2 (Homo sapiens) (UniProt P36507+Q02750); experiment: Inhibition of MEK1/2 (unknown origin) by HTRF assay relative to control; format: protein assay; details: concentration not given here
[26] = target: Epidermal growth factor receptor (Homo sapiens, UniProt P00533, L858R/T790M); experiment: Inhibition of EGFR L858R/T790M (unknown origin) preincubated for 10 mins followed by substrate addition and measured after 50 mins in presence of ATP by HTRF assay
[27] = target: T1, Epidermal growth factor receptor (Homo sapiens, UniProt P00533); experiment: Inhibition of wild type EGFR (unknown origin) preincubated for 10 mins followed by substrate addition and measured after 50 mins in presence of ATP by HTRF assay
T1 sequence (P00533 whole entry): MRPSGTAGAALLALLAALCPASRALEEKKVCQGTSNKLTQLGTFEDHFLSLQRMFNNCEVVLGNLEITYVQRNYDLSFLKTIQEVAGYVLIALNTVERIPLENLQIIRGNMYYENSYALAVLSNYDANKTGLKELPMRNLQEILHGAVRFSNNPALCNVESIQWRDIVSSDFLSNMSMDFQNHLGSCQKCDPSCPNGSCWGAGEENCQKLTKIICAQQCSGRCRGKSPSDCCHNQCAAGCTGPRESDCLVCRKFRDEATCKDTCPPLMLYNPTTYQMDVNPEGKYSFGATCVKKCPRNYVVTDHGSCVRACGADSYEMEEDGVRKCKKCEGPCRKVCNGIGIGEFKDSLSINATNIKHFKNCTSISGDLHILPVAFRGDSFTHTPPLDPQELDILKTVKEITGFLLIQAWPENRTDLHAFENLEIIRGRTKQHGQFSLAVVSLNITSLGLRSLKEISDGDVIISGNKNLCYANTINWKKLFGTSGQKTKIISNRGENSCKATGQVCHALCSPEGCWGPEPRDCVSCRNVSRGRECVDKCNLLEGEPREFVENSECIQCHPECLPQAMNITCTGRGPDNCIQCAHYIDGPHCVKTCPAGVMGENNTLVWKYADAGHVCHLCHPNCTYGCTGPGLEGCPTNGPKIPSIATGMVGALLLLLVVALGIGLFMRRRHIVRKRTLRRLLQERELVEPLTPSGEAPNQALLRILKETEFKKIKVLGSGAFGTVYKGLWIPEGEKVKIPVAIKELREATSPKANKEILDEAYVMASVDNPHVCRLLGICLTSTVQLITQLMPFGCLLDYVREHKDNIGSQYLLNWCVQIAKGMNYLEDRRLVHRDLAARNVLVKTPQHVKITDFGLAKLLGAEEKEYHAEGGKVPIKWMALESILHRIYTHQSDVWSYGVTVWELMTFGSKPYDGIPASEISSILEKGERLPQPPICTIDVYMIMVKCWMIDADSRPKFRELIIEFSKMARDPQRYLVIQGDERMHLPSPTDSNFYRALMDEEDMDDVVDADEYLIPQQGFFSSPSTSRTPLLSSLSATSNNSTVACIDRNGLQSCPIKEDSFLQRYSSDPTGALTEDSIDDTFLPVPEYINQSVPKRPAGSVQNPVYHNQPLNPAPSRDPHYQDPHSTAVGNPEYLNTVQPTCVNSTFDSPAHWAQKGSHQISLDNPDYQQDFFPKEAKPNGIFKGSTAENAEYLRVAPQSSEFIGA

[28] = target: Proto-oncogene tyrosine-protein kinase Src (Homo sapiens) (UniProt P12931); experiment: Inhibition of Src (unknown origin) by HTRF assay relative to control; details: concentration not given here
Chain of Proto-oncogene tyrosine-protein kinase Src (Homo sapiens) (P12931 2-536 limits assumed): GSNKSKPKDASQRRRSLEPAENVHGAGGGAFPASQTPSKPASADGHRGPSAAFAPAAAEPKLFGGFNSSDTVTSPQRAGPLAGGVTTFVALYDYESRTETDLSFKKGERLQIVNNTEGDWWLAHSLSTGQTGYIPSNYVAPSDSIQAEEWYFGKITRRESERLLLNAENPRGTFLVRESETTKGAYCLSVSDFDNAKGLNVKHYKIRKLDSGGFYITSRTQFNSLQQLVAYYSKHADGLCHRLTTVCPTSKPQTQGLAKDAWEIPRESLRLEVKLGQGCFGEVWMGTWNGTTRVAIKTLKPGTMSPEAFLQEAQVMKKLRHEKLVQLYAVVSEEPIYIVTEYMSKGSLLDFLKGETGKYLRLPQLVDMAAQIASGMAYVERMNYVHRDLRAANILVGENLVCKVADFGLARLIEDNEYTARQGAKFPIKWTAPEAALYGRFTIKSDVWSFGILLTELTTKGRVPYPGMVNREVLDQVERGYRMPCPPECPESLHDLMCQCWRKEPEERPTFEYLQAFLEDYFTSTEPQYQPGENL

[29] = target: Insulin-like growth factor 1 receptor (Homo sapiens) (UniProt P08069); experiment: Inhibition of IGF-1R (unknown origin) by HTRF assay relative to control; details: concentration not given here
Homo sapiens [30] = organism: Homo sapiens; experiment: Inhibition of Akt (unknown origin) by HTRF assay relative to control; details: concentration not given here
[31] = target: T1, Epidermal growth factor receptor; experiment: Inhibition of wild type EGFR (unknown origin) at 100 nM preincubated for 10 mins followed by substrate addition and measured after 50 mins in presence of ATP by HTRF assay relative to control; details: time 60.0 min
[32] = target: Epidermal growth factor receptor (Homo sapiens, UniProt P00533, C797S/EX19DEL/T790M); experiment: Inhibition of EGFR Del19/T790M/C797S triple mutant (unknown origin) preincubated for 10 mins followed by substrate addition and measured after 50 mins in presence of ATP by HTRF assay
[33] = target: Proto-oncogene tyrosine-protein kinase ROS (Homo sapiens) (UniProt P08922); experiment: Inhibition of ROS (unknown origin) by HTRF assay relative to control; details: concentration not given here
HCC827 [34] = experiment: Induction of cell cycle arrest in human HCC827 cells assessed as accumulation of cells at S phase at 30 nM measured after 24 hrs by PI staining based flow cytometry analysis (reference value: 28.81%); format: functional
[35] = target: Tyrosine-protein kinase BTK (Homo sapiens) (UniProt Q06187); experiment: Inhibition of BTK (unknown origin) by HTRF assay relative to control; details: concentration not given here

Chain of Epidermal growth factor receptor (Homo sapiens), P00533 [UNDEFINED MUTATION] (P00533 whole entry, looked up, stated change not applied): as the sequence (P00533 whole entry) above

COc1cc(N2CCC(N3CCN(C)CC3)CC2)ccc1Nc1ncc(Cl)c(Nc2ccccc2P(C)(C)=O)n1 [BRIGATINIB]
inhibition [1]: 89.7%
IC50 (HCC827 [2]): 3 nM
IC50 (NCI-H1975): 424 nM
IC50 (A549): 371 nM
inhibition [3]: 64.1%

O=C(NO)c1ccsc1Nc1nc(Nc2ccc(OCCN3CCOCC3)cc2)ncc1Br
inhibition [1]: 51.3%
IC50 (HCC827 [2]): 346 nM
IC50 (NCI-H1975): 247 nM
IC50 (A549): 718 nM
inhibition [3]: 19.7%

Cc1cnc(Nc2ccc(N3CCOCC3)cc2)nc1Nc1ccsc1C(=O)NO
inhibition [1]: 71.2%
IC50 (HCC827 [2]): 55 nM
IC50 (NCI-H1975): 474 nM
IC50 (A549): 169 nM
inhibition [3]: 42.1%

O=C(NO)c1ccsc1Nc1nc(Nc2ccc(N3CCOCC3)cc2)ncc1Cl
Activity (HCC827 [4]): 25.12%
inhibition [5]: < 70%
Activity (HCC827 [6]): 15.6%
Activity (HCC827 [7]): 64.32%
IC50 at 72 h [8]: 5030 nM
inhibition (Homo sapiens [9]): < 70%
Activity (HCC827 [10]): 20.21%
inhibition (Homo sapiens [11]): < 70%
inhibition [1]: 73.3%
IC50 (HCC827 [2]): 31 nM
inhibition [12]: < 70%
IC50 (NCI-H1975): 135 nM
IC50 [13]: 897 nM
IC50 [14]: 26.7 nM
inhibition [15]: < 70%
inhibition (HCC827 [16]): Active
Activity (HCC827 [17]): 20.13%
Activity (HCC827 [18]): 15.47%
IC50 (A549): 230 nM
Activity (HCC827 [19]): 59.28%
inhibition [20]: < 70%
IC50 at 72 h [21]: 15200 nM
inhibition [22]: < 70%
inhibition [23]: < 70%
Activity (HCC827 [24]): 65.79%
inhibition [25]: < 70%
IC50 [26]: 72.3 nM
IC50 [27]: 34.4 nM
inhibition [28]: < 70%
inhibition [29]: < 70%
inhibition (Homo sapiens [30]): < 70%
inhibition [31]: 83.6%
IC50 [32]: 37.9 nM
inhibition [33]: < 70%
inhibition [3]: 47.8%
Activity (HCC827 [34]): 14.08%
inhibition [35]: < 70%

O=C(NO)c1ccsc1Nc1nc(Nc2ccc(CCN3CCOCC3)cc2)ncc1Br
inhibition [1]: 65.5%
IC50 (HCC827 [2]): 37 nM
IC50 (NCI-H1975): 276 nM
IC50 (A549): 650 nM
inhibition [3]: 32.8%

Cc1cnc(Nc2ccc(N3CCOCC3)cc2)nc1Nc1sccc1C(=O)NO
inhibition [1]: 57.2%
IC50 (HCC827 [2]): 230 nM
IC50 (NCI-H1975): 347 nM
IC50 (A549): 114 nM
inhibition [3]: 21.9%

O=C(NO)c1ccsc1Nc1nc(Nc2ccc(OCCCN3CCOCC3)cc2)ncc1Br
inhibition [1]: 53%
IC50 (HCC827 [2]): 335 nM
IC50 (NCI-H1975): 524 nM
IC50 (A549): 733 nM
inhibition [3]: 29.8%

O=C(NO)c1ccsc1Nc1nc(Nc2ccc(N3CCOCC3)cc2)ncc1Br
inhibition [1]: 55.9%
IC50 (HCC827 [2]): 429 nM
IC50 (NCI-H1975): 2010 nM
IC50 (A549): 358 nM
inhibition [3]: 12.4%

O=C(NO)c1ccsc1Nc1nc(Nc2ccc(N3CCOCC3)cc2)ncc1C(F)(F)F
inhibition [1]: 32.7%
IC50 (HCC827 [2]): 1700 nM
IC50 (NCI-H1975): 1670 nM
IC50 (A549): 18600 nM
inhibition [3]: 18.2%

O=C(NO)c1ccsc1Nc1nc(Nc2ccc(CN3CCOCC3)cc2)ncc1Br
inhibition [1]: 62.5%
IC50 (HCC827 [2]): 48 nM
IC50 (NCI-H1975): 879 nM
IC50 (A549): 331 nM
inhibition [3]: 38.6%

O=C(NO)c1ccsc1Nc1nc(Nc2ccc(CCN3CCOCC3)cc2)ncc1Cl
inhibition [1]: 64.9%
IC50 (HCC827 [2]): 45 nM
IC50 (NCI-H1975): 162 nM
IC50 (A549): 388 nM
inhibition [3]: 36.7%
